# Laboratory results published in patent publication US12233161B1, “Lipids and lipid nanoparticle formulations” (LONGUIDE BIOPHARMA CORPORATION, priority 2024, dated 2025).
# Legend:
# mice = assay: In vivo delivery of FLuc-mRNA lipid nanoparticles in mice, in vivo imaging (IVIS)
# How it was run: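 Mice (n=3) received about 75 μL FLuc-mRNA LNP per mouse intramuscularly (rectus femoris), intravenously (tail vein), intraperitoneally or subcutaneously (back). After injection, D-luciferin (200 μL, 15 mg/mL) was given i.p. 10-15 min before IVIS imaging.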
# [1] = Particle size and PDI of nucleic acid lipid nanoparticle preparations by dynamic light scattering; assay type: physicochemical
# Procedure: The 7.5 μL nucleic acid lipid nanoparticle solution (containing approximately 0.04 mg/mL mRNA) was taken and added with 200 μL ultrapure water, mixed by gentle blowing using a pipette tip, and the particle size of the nanopreparation was detected by dynamic lightscattering (DLS) using a Malvern Dynamic Light Scattering Instrument (Malvern Instruments Ltd., ZEN3700, UK).
# 27.5 μL nucleic acid lipid nanoparticle solution (containing about 0.04 mg/mL mRNA) was taken and added with 200 μL ultrapure water. A pipette tip was used to gently blow the sample and mix well. The particle size of the nanopreparation was detected by Malvern Dynamic Light Scattering Instrument (Malvern Instruments Ltd., ZEN3700, UK). After the detection, the sample was recovered to an EP tube, and 600 μL of ultrapure water was added, gently blown with a pipette tip, and the potential of the nanopreparation was measured by a Malvern particle size meter.
# [2] = DMG-PEG2000:DSPC:Chol:Lipid 1.40:11.15:38.95:48.50, N/P 30, IM, whole body scan
# [3] = DMG-PEG2000:DSPC:Chol:Lipid 1.40:11.15:38.95:48.50, N/P 30, IV, body (whole body scan)
# [4] = DMG-PEG2000:DSPC:Chol:Lipid 1.40:11.15:38.95:48.50, N/P 30, IV, liver
# [5] = DMG-PEG2000:DSPC:Chol:Lipid 1.40:11.15:38.95:48.50, N/P 30, IV, lung
# [6] = DMG-PEG2000:DSPC:Chol:Lipid 1.40:11.15:38.95:48.50, N/P 30, IV, spleen
# [7] = DMG-PEG2000:DSPC:Chol:Lipid 1.50:11.50:52.00:35.00, N/P 18, IV, liver
# [8] = DMG-PEG2000:DSPC:Chol:Lipid 1.50:11.50:52.00:35.00, N/P 18, IV, lung
# [9] = DMG-PEG2000:DSPC:Chol:Lipid 1.50:11.50:52.00:35.00, N/P 18, IV, spleen
# [10] = DMG-PEG2000:DSPC:Chol:Lipid 1.40:11.15:38.95:48.50, N/P 30, mRNA LNP
# [11] = DMG-PEG2000:DSPC:Chol:Lipid 1.50:11.50:52.00:35.00, N/P 18, mRNA LNP
# [12] = DMG-PEG2000:DSPC:Chol:Lipid 2.63:12.10:53.68:31.59, N/P 30, IV, liver
# [13] = DMG-PEG2000:DSPC:Chol:Lipid 2.63:12.10:53.68:31.59, N/P 30, IV, lung
# [14] = DMG-PEG2000:DSPC:Chol:Lipid 2.63:12.10:53.68:31.59, N/P 30, IV, spleen
# [15] = DMG-PEG2000:DSPC:Chol:Lipid 2.63:12.10:53.68:31.59, N/P 30, mRNA LNP
# [16] = DMG-PEG2000:DSPC:Chol:Lipid 1.40:11.15:38.95:48.50, N/P 18, mRNA LNP
# [17] = DMG-PEG2000:DSPC:Chol:compound 1.40:11.15:38.95:48.50, N/P 20
smiles,measurement,setting,value
CCCCCCCCCCCCNC(=O)C(O)CN(CCCN(CCCCO)CCCN(CC(O)C(=O)NCCCCCCCCCCCC)CC(O)C(=O)NCCCCCCCCCCCC)CC(O)C(=O)NCCCCCCCCCCCC (centres unmarked) [Compound L0282],IVIS,mice; [2],5.98 × 10^6
same,IVIS,mice; [3],1.50 × 10^7
same,% of organ targeting,mice; [4],2.75%
same,IVIS,mice; [4],6.77 × 10^5
same,% of organ targeting,mice; [5],60.96%
same,IVIS,mice; [5],1.50 × 10^7
same,% of organ targeting,mice; [6],36.29%
same,IVIS,mice; [6],8.93 × 10^6
same,IVIS,"mice; DMG-PEG2000:DSPC:Chol:Lipid 1.50:11.50:52.00:35.00, N/P 18, IV, body",3.77 × 10^6
same,% of organ targeting,mice; [7],7.18%
same,IVIS,mice; [7],6.44 × 10^5
same,% of organ targeting,mice; [8],8.27%
same,IVIS,mice; [8],7.41 × 10^5
same,% of organ targeting,mice; [9],84.55%
same,IVIS,mice; [9],7.58 × 10^6
same,tissue-targeting specificity (lung vs spleen depending on molar percentage of compound),"mice; certain formulations, Table 2",strong tissue-targeting specificity
same,PDI,[1]; [10],0.15 ± 0.02
same,Particle size,[1]; [10],85.38 ± 0.31 nm
same,PDI,[1]; [11],0.18 ± 0.00
same,Particle size,[1]; [11],100.32 ± 0.97 nm
CCCCCCCCCCCCNC(=O)C(O)CN(CCCCN(C)CCCCN(CC(O)C(=O)NCCCCCCCCCCCC)CC(O)C(=O)NCCCCCCCCCCCC)CC(O)C(=O)NCCCCCCCCCCCC (centres unmarked) [Compound L0283],IVIS,mice; [2],2.02 × 10^6
same,IVIS,mice; [3],1.94 × 10^8
same,% of organ targeting,mice; [4],0.75%
same,IVIS,mice; [4],9.53 × 10^6
same,% of organ targeting,mice; [5],98.03%
same,IVIS,mice; [5],1.24 × 10^9
same,% of organ targeting,mice; [6],1.22%
same,IVIS,mice; [6],1.54 × 10^7
same,IVIS,"mice; DMG-PEG2000:DSPC:Chol:Lipid 2.63:12.10:53.68:31.59, N/P 30, IV, body",4.87 × 10^7
same,% of organ targeting,mice; [12],5.72%
same,IVIS,mice; [12],3.31 × 10^6
same,% of organ targeting,mice; [13],25.56%
same,IVIS,mice; [13],1.48 × 10^7
same,% of organ targeting,mice; [14],68.73%
same,IVIS,mice; [14],3.98 × 10^7
same,in vivo delivery efficiency as compared to the benchmark compound SM102,"mice; certain formulations, Table 2",superior in vivo delivery efficiency
same,tissue-targeting specificity (lung vs spleen depending on molar percentage of compound),"mice; certain formulations, Table 2",strong tissue-targeting specificity
same,PDI,[1]; [10],0.12 ± 0.01
same,Particle size,[1]; [10],99.68 ± 0.45 nm
same,PDI,[1]; [15],0.12 ± 0.01
same,Particle size,[1]; [15],95.92 ± 0.22 nm
CC/C=C\CCOCOCCCCCCOC(=O)C(O)CN(C)CCN(C)CCN(C)CC(O)C(=O)OCCCCCCOCOCC/C=C\CC (centres unmarked) [Compound L0284],IVIS,"mice; DMG-PEG2000:DSPC:Chol:Lipid 1.40:11.15:38.95:48.50, N/P 18, IM, whole body scan",5.87 × 10^4
same,IVIS,"mice; DMG-PEG2000:DSPC:Chol:Lipid 1.40:11.15:38.95:48.50, N/P 18, IV, whole body scan",2.03 × 10^5
same,PDI,[1]; [16],0.12 ± 0.02
same,Particle size,[1]; [16],150.97 ± 2.57 nm
CCCCCCC(CCCCCC)C(=O)OCCCCCCOC(=O)C(O)CN(C)CCN(C)CCN(C)CC(O)C(=O)OCCCCCCOC(=O)C(CCCCCC)CCCCCC (centres unmarked) [Compound L0286],IVIS,mice; [2],3.05 × 10^3
same,IVIS,mice; [3],4.41 × 10^6
same,PDI,[1]; [10],0.16 ± 0.04
same,Particle size,[1]; [10],136.97 ± 0.92 nm
CCCCCCCC/C=C\CCCCCCCCNC(=O)C(O)CN(C)CCN(C)CCN(C)CC(O)C(=O)NCCCCCCCC/C=C\CCCCCCCC (centres unmarked) [Compound L0296],IVIS,"mice; IM, DMG-PEG2000:DSPC:Chol:compound 1.40:11.15:38.95:48.50, N/P 20, Fluc-mRNA",2.80E+05
same,IVIS,"mice; IV, organ not given, DMG-PEG2000:DSPC:Chol:compound 1.40:11.15:38.95:48.50, N/P 20, Fluc-mRNA",2.97E+05
same,PDI,[1]; [17],0.16
same,Particle size (nm),[1]; [17],81.09 nm
